One may read the IC50 as the concentration needed to halve the response being measured. Lower therefore signals inhibition by little substance.

Here are results for 18 molecules from patent publication US12583855B2, “RET selective inhibitor, preparation method therefor and use thereof” (SHOUYAO HOLDINGS (BEIJING) CO., LTD., priority 2019, dated 2026).

The target in one test is T1, RET^WT (Homo sapiens, UniProt P07949).
T1 construct: GST-RET^WT (658-1114 aa, final concentration of 0.5 nM)
T1 sequence (P07949 658-1114): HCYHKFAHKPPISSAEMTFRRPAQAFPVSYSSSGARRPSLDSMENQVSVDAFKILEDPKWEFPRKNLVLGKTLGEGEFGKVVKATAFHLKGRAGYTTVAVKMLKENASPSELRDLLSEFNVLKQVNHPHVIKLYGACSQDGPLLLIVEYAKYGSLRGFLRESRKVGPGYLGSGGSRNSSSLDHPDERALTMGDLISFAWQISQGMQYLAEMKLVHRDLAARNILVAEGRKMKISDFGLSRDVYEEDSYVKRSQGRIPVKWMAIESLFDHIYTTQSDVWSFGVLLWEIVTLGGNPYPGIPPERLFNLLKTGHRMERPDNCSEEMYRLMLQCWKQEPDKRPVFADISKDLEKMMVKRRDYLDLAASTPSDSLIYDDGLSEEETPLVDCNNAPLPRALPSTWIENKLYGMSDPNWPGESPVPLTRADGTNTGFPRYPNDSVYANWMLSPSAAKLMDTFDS
Kind of test: In vitro enzymatic activity assay on RET^WT (HTRF). In kind it is biochemical. To be noted: GST-RET^WT (658-1114 aa) 0.5 nM, ATP 25 μM. As to the method: 1. In Vitro Enzymatic Activity Assay for Compounds on RET^WT
The compounds were diluted 5-fold with 100% DMSO starting from 0.2 mM (7 concentrations in total), and 2 μL of each concentration was added to 48 μL of reaction buffer (50 mM HEPES pH7.5, 0.1 mM Na3VO4, 5 mM MgCl2. 1 mM DTT, 0.001% Tween 20, and 100 μg/ml BSA) for dilution and mixing.
The 384-well plate was placed in an incubator and reacted at 23° C. for 2 h before the reaction was stopped by the addition of 5 μL of TK Antibody (purchased from Cisbio) and 5 μL of Streptavidin-XL665 (purchased from Cisbio). […] The enzymatic activity signal of RET^WT was measured at 7 concentrations for each compound and the data were calculated using GraphPad Prism software to obtain the IC50 value for the compound.
In general terms: TR-FRET usually uses a lanthanide donor and a delayed reading to cut background.

Another test deals with VEGFR2 (Homo sapiens, UniProt P35968). Nature of the test: In vitro enzymatic activity assay on VEGFR2 (HTRF). Conditions: GST-VEGFR2 0.1 nM, ATP 2.5 μM. The format is biochemical. On the procedure: 3. n Vitro Enzymatic Activity Assay for Compounds on VEGFR2
The compounds were diluted 5-fold with 100% DMSO starting from 1 mM (7 concentrations in total), and 2 μL of each concentration was added to 48 μL of reaction buffer (50 mM HEPES pH 7.5, 0.1 mM Na3VO4, 5 mM MgCl2, 1 mM MnCl2, 1 mM DTT, 0.001% Tween 20, and 100 μg/ml BSA) for dilution and mixing. 2.5 μL of compounds and 5 μL of GST-VEGFR2 (final concentration of 0.1 nM) were added to a 384-well plate (OptiPlate-384, purchased from PerkinElmer), the mixture was mixed by centrifugation, and 2.5 μL of ATP (final concentration of 2.5 μM) and TK Peptide Substrate mixture (final concentration of 1 μM, purchased from Cisbio) were added to start the reaction, with a total reaction volume of 10 μL. The 384-well plate was placed in an incubator and reacted at 23° C. for 1.5 h before the reaction was stopped by the addition of 5 μL of TK Antibody (purchased from Cisbio) and 5 μL of Streptavidin-XL665 (purchased from Cisbio). After further incubation in the incubator for 1 h. fluorescence values (excitation at 320 nm, detecting emitted light at 665 nm and 620 nm, and a ratio of the two as an enzyme activity signal) were read on Envision (purchased from PerkinElmer). The enzymatic activity signal of VEGFR2 was measured at 7 concentrations for each compound and the data were calculated using GraphPad Prism software to obtain the IC50 value for the compound.

Sequence of VEGFR2 (P35968 20-1356): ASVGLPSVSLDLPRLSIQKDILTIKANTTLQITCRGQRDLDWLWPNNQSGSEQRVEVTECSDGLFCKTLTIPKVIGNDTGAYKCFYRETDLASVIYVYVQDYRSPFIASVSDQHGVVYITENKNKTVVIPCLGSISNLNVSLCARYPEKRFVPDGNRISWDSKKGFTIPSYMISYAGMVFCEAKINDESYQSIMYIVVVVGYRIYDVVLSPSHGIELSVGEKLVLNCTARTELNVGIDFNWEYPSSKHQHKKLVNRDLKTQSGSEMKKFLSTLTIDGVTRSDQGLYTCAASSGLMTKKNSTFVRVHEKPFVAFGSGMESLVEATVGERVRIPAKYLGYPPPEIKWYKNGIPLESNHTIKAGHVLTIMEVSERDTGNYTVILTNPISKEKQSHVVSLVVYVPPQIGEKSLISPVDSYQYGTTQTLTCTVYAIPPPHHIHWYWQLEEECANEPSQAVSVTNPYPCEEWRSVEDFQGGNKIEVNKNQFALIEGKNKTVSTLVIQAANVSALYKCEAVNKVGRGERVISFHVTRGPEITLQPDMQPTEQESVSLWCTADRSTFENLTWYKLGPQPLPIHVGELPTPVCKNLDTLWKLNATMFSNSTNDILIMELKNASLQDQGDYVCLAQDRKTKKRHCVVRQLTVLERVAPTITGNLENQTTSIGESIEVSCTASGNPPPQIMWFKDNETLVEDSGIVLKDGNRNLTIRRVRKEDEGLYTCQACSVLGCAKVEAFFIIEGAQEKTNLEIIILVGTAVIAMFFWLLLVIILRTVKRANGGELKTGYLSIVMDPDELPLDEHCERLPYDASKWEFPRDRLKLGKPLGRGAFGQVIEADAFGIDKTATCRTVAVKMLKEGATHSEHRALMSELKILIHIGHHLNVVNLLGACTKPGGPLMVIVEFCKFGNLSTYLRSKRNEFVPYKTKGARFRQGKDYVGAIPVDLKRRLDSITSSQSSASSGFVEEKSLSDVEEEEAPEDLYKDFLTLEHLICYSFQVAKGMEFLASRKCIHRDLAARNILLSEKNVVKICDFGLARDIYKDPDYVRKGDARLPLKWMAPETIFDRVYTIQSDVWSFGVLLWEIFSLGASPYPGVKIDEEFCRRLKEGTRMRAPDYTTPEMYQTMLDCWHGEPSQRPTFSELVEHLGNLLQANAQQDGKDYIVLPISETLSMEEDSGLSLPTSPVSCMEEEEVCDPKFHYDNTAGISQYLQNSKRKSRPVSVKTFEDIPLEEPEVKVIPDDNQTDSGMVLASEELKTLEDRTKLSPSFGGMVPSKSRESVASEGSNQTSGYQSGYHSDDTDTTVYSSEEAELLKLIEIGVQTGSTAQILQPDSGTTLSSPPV

For `COc1ncc(CN2C3CC2CN(c2ccc(-c4cc(N5CC(C)(O)C5)cn5ncc(C#N)c45)cn2)C3)cn1` [Example 58, 6-(3-hydroxy-3-methylazetidin-1-yl)-4-(6-(6-((2-methoxypyrimidin-5-yl)methyl)-3,6-diazabicyclo[3.1.1]heptan-3-yl)pyridin-3-yl)pyrazolo[1,5-a]pyridine-3-carbonitrile], on RET^WT, inhibition was half-maximal at 1.34 nM (IC50).
Consider `CS(=O)(=O)c1ccc(CN2CCN(c3ccc(-c4cc(-c5cnn(C(F)F)c5)cn5ncc(C#N)c45)cn3)CC2)nc1` [Example 80, 6-(1-(difluoromethyl)-1Hpyrazol-4-yl)-4-(6-(4-((5-(methylsulfonyl)pyridin-2-yl)methyl)piperazin-1-yl)pyridin-3-yl) pyrazolo[1,5-a] pyridine-3-carbonitrile], for which the IC50 at RET^WT was determined as 1.58 nM.
The same measure, in the same setting: the same measure for `CCn1cc(-c2cc(-c3ccc(N4CC5CC(C4)N5Cc4ccc(S(C)(=O)=O)cc4)nc3)c3c(C#N)cnn3c2)cn1` [Example 44, 6-(1-ethyl-1Hpyrazol-4-yl)-4-(6-(6-(4-(methylsulfonyl)benzyl)-3,6-diazabicyclo[3.1.1]heptan-3-yl)pyridin-3 yl)pyrazolo[1,5-a]pyridine-3-carbonitrile]: 0.247 nM.
Take `COc1ccc(CN2CCN(c3ccc(-c4cc(N5CCOCC5)cn5ncc(C#N)c45)cn3)CC2)cn1` [Example 19, 6-(morpholino-1-yl)-4-(6-(4-((6-methoxypyridin-3-yl)methyl)piperazin-1-yl)pyridin-3-yl)pyrazolo[1,5-a]pyridine-3-carbonitrile]: the IC50 worked out at 94 nM against VEGFR2 and 0.636 nM on RET^WT.
As to `CSc1cccc(CN2CCN(c3ccc(-c4cc(-c5cnn(C)c5)cn5ncc(C#N)c45)cn3)CC2)n1` [Example 51, 6-(1-methyl-1Hpyrazol-4-yl)-4-(6-(4-((6-(methylthio)pyridin-2-yl)methyl)piperazin-1-yl)pyridin-3-yl)pyrazolo[1,5-a]pyridine-3-carbonitrile], the IC50 on VEGFR2 worked out at 6.2 nM; at RET^WT, 0.328 nM.
Take `CSc1ccc(CN2C3CC2CN(c2ccc(-c4cc(-c5cnn(C)c5)cn5ncc(C#N)c45)cn2)C3)cc1` [Example 59, 6-(1-methyl-1Hpyrazol-4-yl)-4-(6-(6-(4-(methylthio)benzyl)-3,6-diazabicyclo[3.1.1]heptan-3-yl)pyridin-3-yl)pyrazolo[1,5-a]pyridine-3-carbonitrile]: the IC50 at VEGFR2 was 0.154 nM; against RET^WT it was 0.066 nM.
For `CS(=O)(=O)c1ccc(CN2CCN(c3ccc(-c4cc(-c5cnn(C(F)F)c5)cn5ncc(C#N)c45)cn3)CC2)cn1` [Example 63, 6-(1-(difluoromethyl)-1Hpyrazol-4-yl)-4-(6-(4-((6-(methylsulfonyl)pyridin-3-yl)methyl)piperazin-1-yl)pyridin-3-yl)pyrazolo[1,5-a]pyridine-3-carbonitrile], at RET^WT, the IC50 is 2.96 nM.
With `COc1ccc(CN2C3CC2CN(c2ccc(-c4cc(N5CC(OC)C5)cn5ncc(C#N)c45)cn2)C3)cn1` [Example 27, 6-(3-methoxyazetidin-1-yl)-4-(6-(6-((6-methoxypyridin-3-yl)methyl)-3,6-diazabicyclo[3.1.1]heptan-3-yl)pyridin-3-yl)pyrazolo[1,5-a]pyridine-3-carbonitrile], the results for the IC50 at VEGFR2 and at RET^WT were 2.28 nM and 0.536 nM, respectively.
For `N#Cc1cnn2cc(-c3cnn(C(F)F)c3)cc(-c3ccc(N4CC5CC(C4)N5Cc4ccc([N+](=O)[O-])cc4)nc3)c12` [Example 83, 4-(6-(6-(4-nitrobenzyl)-3,6-diazabicyclo[3.1.1]heptan-3-yl)pyridin-3-yl)-6-(1-(difluoromethyl)-1Hpyrazol-4-yl)pyrazolo[1,5-a]pyridine-3-carbonitrile] the same measures were 4.59 nM and 0.12 nM.
Consider `CCSc1ccc(CN2CCN(c3ccc(-c4cc(-c5cnn(C)c5)cn5ncc(C#N)c45)cn3)CC2)cn1` [Example 18, 6-(1-methyl-1Hpyrazol-4-yl)-4(6-(4-((6-(ethylthio)pyridin-3-yl)methyl)piperazin-1-yl)pyridin-3-yl)pyrazolo[1,5-a]pyridine-3-carbonitnile], for which, on VEGFR2, 13 nM corresponded to half-maximal inhibition (IC50).
In the case of `COC/C=C/C(=O)N1C2CC1CN(c1ccc(-c3cc(-c4cnn(C(F)F)c4)cn4ncc(C#N)c34)cn1)C2` [Example 62, (E)-6-(1-(difluoromethyl)-1Hpyrazol-4-yl)-4-(6-(6-(4-methoxybut-2-enoyl)-3,6-diazabicyclo[3.1.1]heptan-3-yl)pyridin-3-yl)pyrazolo[1,5-a]pyridine-3-carbonitrile], the midpoint of inhibition on RET^WT, the IC50, lay at 1.11 nM.
Still for that read-out and setting: the same measure for `CSc1ccc(CN2CCN(c3ccc(-c4cc(-c5cnn(C(F)F)c5)cn5ncc(C#N)c45)cn3)CC2)cc1` [Example 81, 4-(6-(4-(4-(methylthio)benzyl)piperazin-1-yl)pyridin-3-yl)-6-(1-(difluoromethyl)-1Hpyrazol-4-yl)pyrazolo[1,5-a]pyridine-3-carbonitrile]: 1.33 nM.
`CSc1ccc(CN2C3CC2CN(c2ccc(-c4cc(-c5cnn(C(F)F)c5)cn5ncc(C#N)c45)cn2)C3)cc1` [Example 82, 6-(1-difluoromethyl-1Hpyrazol-4-yl)-4-(6-(6-(4-(methylthio)benzyl)-3,6-diazabicyclo[3.1.1]heptan-3-yl)pyridin-3-yl)pyrazolo[1,5-a]pyridine-3-carbonitrile]: the values for the IC50 against VEGFR2 and on RET^WT were 0.734 nM and 0.136 nM, respectively.
Take `CSc1ccc(CN2C3CC2CN(c2ccc(-c4cc(-c5cnn(C)c5)cn5ncc(C#N)c45)cn2)C3)cn1` [Example 50, 6-(1-methyl-1Hpyrazol-4-yl)-4-(6-(6-((6-(methylthio)pyridin-3-yl)methyl)-3,6-diazabicyclo[3.1.1]heptan-3-yl)pyridin-3-yl)pyrazolo[1,5-a]pyridine-3-carbonitrile]: inhibition against RET^WT was half-maximal at 0.181 nM (IC50).
On VEGFR2, `Cn1cc(-c2cc(-c3ccc(N4CC5CCC(C4)N5Cc4ccc(S(C)(=O)=O)cc4)nc3)c3c(C#N)cnn3c2)cn1` [Example 57, 6-(1-methyl-1Hpyrazol-4-yl) 4-(6-(8-(4-(methylsulfonyl)benzyl)-3,8-diazabicyclo[3.2.1]octan-3-yl)pyridin-3-yl)pyrazolo[1,5-a]pyridine-3-carbonitrile] registered an IC50 of 8.94 nM.
Molecule `CSc1ccc(CN2CCN(c3ccc(-c4cc(-c5cnn(C(F)F)c5)cn5ncc(C#N)c45)cn3)CC2)cn1` [Example 75, 6-(1-(difluoromethyl)-1Hpyrazol-4-yl)-4-(6-(4-((6-(methylthio)pyridin-3-yl)methyl)piperazin-1-yl)pyridin-3-yl) pyrazolo[1,5-a] pyridine-3-carbonitrile] returned an IC50 against RET^WT of 0.943 nM.
As for `CN(C)C(=O)Cn1cc(-c2cc(-c3ccc(N4CCN(Cc5ccc(S(C)(=O)=O)cc5)CC4)nc3)c3c(C#N)cnn3c2)cn1` [Example 54], the IC50 on VEGFR2 was found to be 10.1 nM; against RET^WT it was 1.07 nM.
`CS(=O)(=O)c1ccc(CN2CCN(c3ccc(-c4cc(N5CC(C#N)C5)cn5ncc(C#N)c45)cn3)CC2)cc1` [Example 40, 6-(3-cyanoazetidin-1-yl)-4-(6-(4-(4-(methylsulfonyl)benzyl)piperazin-1-yl)pyridin-3-yl)pyrazolo[1,5-α]pyridin-3-carbonitrile]: on RET^WT, half-maximal inhibition (IC50) was put at 1.31 nM.
